Test results: article PMC2628307 (Journal of the American Chemical Society, 2008)
Values joined by “and” are separate entries in the source; they are usually repeats but may differ in a detail not shown here. Equal values may be shown once. Where a name gives a salt, the structure may show the parent alone. Read-outs that look alike come from different tables or passages of the source.

Assays:
[1] = physchem
[2] = target: T1, PP1γ (Homo sapiens, UniProt P36873); format: biochemical; settings: for activity as PP1γ substrate: pH 8
T1 sequence (P36873 whole entry): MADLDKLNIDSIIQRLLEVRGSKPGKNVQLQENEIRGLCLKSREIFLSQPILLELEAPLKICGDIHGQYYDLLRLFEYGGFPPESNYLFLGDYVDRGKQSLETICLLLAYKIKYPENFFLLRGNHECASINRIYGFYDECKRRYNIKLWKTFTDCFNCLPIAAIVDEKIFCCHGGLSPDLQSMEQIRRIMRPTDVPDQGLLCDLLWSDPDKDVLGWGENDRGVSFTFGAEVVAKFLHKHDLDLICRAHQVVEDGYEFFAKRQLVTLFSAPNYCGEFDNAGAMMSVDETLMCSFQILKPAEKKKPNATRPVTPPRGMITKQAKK

[3] = 25 °C; cited from earlier work
[4] = target: PP1 H125A mutant (Homo sapiens, UniProt P36873, H125A); assay: 4NPP hydrolysis by PP1 H125A mutant; format: biochemical
Chain of PP1 H125A mutant (P36873 2-323 H125A): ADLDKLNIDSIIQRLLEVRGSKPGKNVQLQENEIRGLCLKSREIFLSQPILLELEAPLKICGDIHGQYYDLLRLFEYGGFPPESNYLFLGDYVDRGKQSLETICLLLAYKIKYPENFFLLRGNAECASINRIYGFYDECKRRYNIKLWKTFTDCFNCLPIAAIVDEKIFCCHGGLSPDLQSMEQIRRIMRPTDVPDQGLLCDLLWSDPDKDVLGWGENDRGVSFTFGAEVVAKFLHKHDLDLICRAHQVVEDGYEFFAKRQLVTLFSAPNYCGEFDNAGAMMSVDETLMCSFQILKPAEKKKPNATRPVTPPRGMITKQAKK

[5] = target: PP1 (Homo sapiens, UniProt P36873); assay: Kinetic isotope effects of PP1-catalyzed hydrolysis; format: biochemical; settings: 25 °C, pH 7.0
Chain of PP1 (Homo sapiens, UniProt P36873) (P36873 whole entry): as the sequence (P36873 whole entry) above

[6] = Dianion H2O attack, 95° C; cited from earlier work
[7] = system: native PTPs YopH, VHR, and PTP1; settings: cited from earlier work
[8] = system: calcineurin; settings: cited from earlier work
[9] = target: PP1; settings: tighter binding peptide substrate; cited from earlier work
[10] = target: T1, PP1γ
[11] = target: alkaline phosphatase; settings: cited from earlier work

For O=[N+]([O-])c1ccc(O)cc1 [4-nitro, p-nitrophenol], the pKa [1] was 7.01.

With COP(=O)(O)Oc1ccc([N+](=O)[O-])cc1 [4-nitrophenyl methyl phosphate] the “activity as PP1γ substrate” value [2] was “significant activity”.

For O=[N+]([O-])c1ccc(OS(=O)(=O)O)cc1 [4-nitrophenyl sulfate], the “activity as PP1γ substrate” value [2] was “little activity”.

With O=[N+]([O-])c1ccc(OP(O)(O)=S)cc1 [4-nitrophenyl thiophosphate] the “activity as PP1γ substrate” value [2] was “little activity”.

For O=[N+]([O-])c1ccc(OP(=O)(O)O)cc1 [4NPP, 4-nitrophenyl phosphate], the “pseudo-first order rate constant of water reaction of the dianion” value [3] is given as 2e-09 s⁻¹, the “activity for 4NPP hydrolysis” value [4] is given as “no detectable activity” and the “^18knonbridge” value [5] is given as 0.9959 (4). The “^18knonbridge per atom” value [5] was 0.9986 (4), the “^15k” value [6] was 1.0028(2) and the “^18knonbridge” value [6] was 0.9994 (5). For the same molecule, the “^18knonbridge per atom” value [6] was 0.9998 (5), the “^15k” value [7] was 0.9999-1.0001 and the “^18knonbridge” value [7] was 0.9998-1.0003 and 1.0118-1.0152. For the same molecule, the “^18knonbridge per atom” value [7] was 0.9999-01.0001, the “^18(V/K)nonbridge” value ([8]; calcineurin with Mg^2+ at the active site) was 0.9910 and the “^18(V/K)nonbridge” value ([8]; calcineurin with Mn^+2 at the active site) was 0.9942. The “change in rate of hydrolysis with viscosigens” value ([2]; 20% sucrose or glycerol) was “no changes”.

In the case of O=P(O)(O)O [inorganic phosphate], the Ki [9] is given as 1600 ± 900 µM, the Ki ([10]; pH 8, 4NPMP hydrolysis, compared with Ki for the 4NPP reaction) is given as “same Ki” and the Ki ([10]; pH 8.0, 4NPP hydrolysis, competitive inhibition, equation 2) is given as 1200 ± 200 µM. For the same molecule, the Ki [11] was about 1 µM.
